Reference: patent publication US10214507B2, “Carbazole-containing amides, carbamates, and ureas as cryptochrome modulators” (Reset Therapeutics, Inc., priority 2014, dated 2019)
Read-outs that look alike come from different tables or passages of the source.

Experiments:
[1] = system: core clock gene mRNAs in liver of Balb/c mice; test: 24 hour gene expression study, liver mRNA by RT-qPCR, Balb/c mice; format: in vivo, mouse; conditions: 50 mg/kg BID PO
Description: E.Z.N.A.® HP Total RNA Isolation Kits (R6812-01 and the protocol described in the Manual, Revised 2010) were utilized to prepare and isolate RNA from the liver samples. To prepare the RNA samples, 10-30 mg of sample was removed from RNA-Later and placed in a 1.5 ml microfuge tube. GTC lysis buffer (700 μl) was added to the tissue, which was homogenized with a rotor-stator homogenizer (e.g. Tissue-Tearor, Model #985370 BioSpec Products with 4.5 mm probe, Cat. #985370-04), and then centrifuged at full speed (>13,000×g) for 5 minutes. The cleared supernatant was transferred by pipetting to a DNA Clearance Column Pre-inserted in a 2 mL Collection Tube. The assembled column was centrifuged at 13,000×g for 1 minute, and the flow-through was saved. An equal volume (700 μl) of 70% ethanol was added to the lysate and mixed. The sample was then applied to a HiBind RNA spin column placed into a 2 ml collection tube, which was centrifuged at 10,000×g for 60 seconds at room temperature. RNA Wash Buffer I (250 μl) was added by pipetting directly onto a new HiBind RNA column inserted in a 2 ml collection tube. The assembled column was centrifuged at 10,000×g for 60 seconds. The RNA column was placed into a new 2 ml collection tube. DNase I stock solution is pipetted (75 μl) directly onto the surface of the HiBind RNA resin in each column (Using DNAse Digestion with RNase Free DNase Set (E1091): for each HiBind RNA column, the DNase I stock solution was prepared as followed: E.Z.N.A.® DNase I Digestion Buffer 73.5μl, RNase Free DNase I (20 Kunitz/μl) 1.5 μl=Total Volume 75 μl.). The column with bound RNA was incubated at room temperature (25-30° C.) for 15 minutes. RNA Wash Buffer I (500 μl) was added to the column and placed on a bench top for 2 minutes. After centrifuging at 10,000×g for 60 seconds, discarding the flow-through, 500 μl of RNA Wash Buffer II was added and centrifuged at 10,000×g for 60 seconds. Another 500 μl of RNA Wash Buffer II was added and the column assembly was centrifuged at 10,000×g for 60 seconds. The column was centrifuged for 2 minutes at maximum speed to completely dry the HiBind matrix. […]
RediPlate 96 RiboGreen RNA Quantification Kit (Invitrogen) RediPlate standard curve was prepared by transferring 20 μl reconstituted RNA standard to a RediPlate well reconstituted in 180 μl RediPlate TE buffer. […] After transferring 5 μl to RediPlate well reconstituted in 195 μl TE buffer and incubating 10 min. at RT, Fluorescence Intensity of wells with standards and samples were read in a Tecan M200 with Excitation set at 480 nm and Emission set at 520 nm with the gain set to −70%. […] A standard curve was generated in GraphPad Prism and sample readings (unknowns) are interpolated via linear regression analysis, and the RNA sample concentrations were calculated. […]

[2] = system: db/db mouse model of type II diabetes; test: Single dose at peak or nadir of clock gene expression, OGTT in db/db mice; format: in vivo
Description: Mice were split into two study arms, to be dosed at either the peak or nadir of Cry1 and Bmal1 gene expression. […] Mice dosed at ZT10 were fasted beginning at 8:30 am in the same manner.
(§1) Significance was accepted when p<0.05.

C57/Bl6J DIO mice = test: 7 day dosing in diet-induced obesity (DIO) mouse model; format: in vivo; conditions: 100 mg/kg PO 7 days
Description: Male C57/Bl6J DIO mice were obtained from The Jackson Laboratory (Sacramento, Calif.). […] Animals were accustomed to these conditions for at least 2 weeks before experimentation and used at approximately 24 weeks of age.
as §1

[3] = Pharmacokinetic analysis in ICR mice (plasma and liver, LC/MS/MS); format: in vivo, mouse; conditions: 50 mg/kg P.O.; for Cmax / Tmax / half-life / MRT last: male, ICR, po; for Cmax: 50 mg/kg; for half-life: read-out: Elimination T1/2 (converted); for MRT last: read-out: MRT (0-last, hr)
Description: Male ICR mice (weighing 30-40 g, Charles River Laboratories) were used for the experiment with n=3 mice for each experimental group (27 mice total for the study). […] Blood and liver tissue were collected at the following time points after administration: 15, 30, 60, 90 minutes, 3, 6, 12 and 24 hours. A control group of animals (TO) was also sampled. Animals were euthanized with CO2 and the blood collected from the heart using cardiac puncture, transferred to an EDTA tube, and then centrifuged at 5400 rpm for 5 minutes at 4° C. The resultant plasma was frozen using dry ice and then stored at −80° C. until ready for assay. Liver tissue was removed from each animal, 0.5 g was collected in an eppendorff, frozen and submitted for pharmacokinetic measurement. […] Raw data was analyzed using WinNonLin for PK parameters (Cmax, Tmax, elimination t^1/2, MRT (mean residence time), AUC (area under the curve)−(0-last and % extrapolated).

Question: With `O=C1NCCN1CC(O)Cn1c2ccc(F)cc2c2cc(F)ccc21` (centres unmarked) [Compound 72, 1-(3-(3,6-difluoro-9H-carbazol-9-yl)-2-hydroxypropyl)imidazolidin-2-one] as the compound, how does the “Cry2 mRNA daytime peak in liver” value [1] read?
Answer: strongly attenuated

Question: What about the “Bmal1 mRNA in liver” value ([1]; at ZT8 and 32 hours after original ZT0) of the same compound?
Answer: substantially increased

Question: What about the “Cry1 mRNA in liver” value ([1]; peak of expression in dark period) of the same compound?
Answer: suppressed

Question: What about the “Per2 mRNA in liver over 24 hours” value ([1]; vs vehicle) of the same compound?
Answer: suppressed

Question: And the “effect on OGTT measurement, dosed at peak of Cry1 and Bmal1 expression” value ([2]; single dose 50 mg/kg PO at ZT0)?
Answer: apparent effect

Question: And the “effect on OGTT measurement, dosed at nadir” value ([2]; single dose 50 mg/kg PO at ZT10)?
Answer: no effect

Question: And the “glucose AUC calculated from the OGTT” value ([2]; single dose 50 mg/kg PO at peak (ZT0), mean+/-S.E.M.)?
Answer: 63842+/−4318

Question: What about the “reduction in glucose excursion (AUC)” value ([2]; single dose 50 mg/kg PO at peak (ZT0), vs vehicle) of the same compound?
Answer: 14%

Question: And the HOMA-IR (C57/Bl6J DIO mice)?
Answer: 32.54+/−3.37 units

Question: And the fasting blood glucose (C57/Bl6J DIO mice)?
Answer: 177.1 ± 8.28 mg/dL

Question: And the “glucose AUC calculated from the OGTT” value (C57/Bl6J DIO mice)?
Answer: 17055+/−769.1

Question: And the “plasma insulin at t=0” value (C57/Bl6J DIO mice)?
Answer: 3.12 ± 0.24 ng/mL

Question: What about the “plasma insulin at t=2 hr” value (C57/Bl6J DIO mice) of the same compound?
Answer: 2.88 ± 0.21 ng/mL

Question: And the Cmax ([3]; mouse, liver, mouse liver, read-out: Cmax)?
Answer: 7890 ng/mL

Question: And the Cmax ([3]; mouse, liver, mouse, unbound, read-out: Cmax UB (liver))?
Answer: 288 ng/mL

Question: What about the Cmax ([3]; mouse, plasma, mouse plasma, read-out: Cmax) of the same compound?
Answer: 1150 ng/mL

Question: And the Cmax ([3]; mouse, plasma, mouse, read-out: Cmax (plasma))?
Answer: 1150 ng/mL

Question: And the Cmax ([3]; mouse, plasma, mouse, unbound, read-out: Cmax UB (plasma))?
Answer: 41.9 ng/mL

Question: And the Tmax ([3]; mouse liver)?
Answer: 0.25 to 0.5 h

Question: What about the half-life ([3]; mouse liver) of the same compound?
Answer: 3.4 h

Question: And the MRT last ([3]; mouse liver)?
Answer: 4.74 h

Question: What about the Tmax ([3]; mouse plasma) of the same compound?
Answer: 0.25 to 0.5 h

Question: And the half-life ([3]; mouse plasma)?
Answer: 3.13 h

Question: And the MRT last ([3]; mouse plasma)?
Answer: 5.3 h

Question: What about the “% AUC extrapolated” value ([3]; mouse liver) of the same compound?
Answer: 0.85%

Question: And the “AUC (total; ng · hr/mL)” value ([3]; mouse liver)?
Answer: 17961 ng·h/mL

Question: And the “% AUC extrapolated” value ([3]; mouse plasma)?
Answer: 1.74%

Question: And the “AUC (total; ng · hr/mL)” value ([3]; mouse plasma)?
Answer: 4236 ng·h/mL

Question: What about the “Cmax (liver)” value ([3]; mouse) of the same compound?
Answer: 7890 ng/mL

Question: And the “Total Liver AUC (0-last)” value ([3]; mouse)?
Answer: 17822

Question: What about the “Unbound Liver AUC (0-last)” value ([3]; mouse) of the same compound?
Answer: 650.5

Question: And the “Unbound Plasma AUC (0-last)” value ([3]; mouse)?
Answer: 151.5
